Data as given in PubChem BioAssay (NCI).
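Each compound was tested at five concentrations against cells in 96-well plates for 48 hours. Here, GI50 denotes the concentration required for 50% inhibition of growth. TGI: total growth inhibition.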

Key:
Assay in all cases: growth of human tumour cells (NCI), 48 h
[1] = test system: 786-0 renal
[2] = test system: A498 renal
[3] = test system: A549 NSCLC
[4] = test system: ACHN renal
[5] = test system: BT-549 breast
[6] = test system: CAKI-1 renal
[7] = test system: CCRF-CEM leukemia
[8] = test system: COLO 205 colon
[9] = test system: DU-145 prostate
[10] = test system: EKVX NSCLC
[11] = test system: HCC-2998 colon
[12] = test system: HCT-116 colon
[13] = test system: HCT-15 colon
[14] = test system: HL-60(TB) leukemia
[15] = test system: HOP-62 NSCLC
[16] = test system: HOP-92 NSCLC
[17] = test system: HT29 colon
[18] = test system: IGROV1 ovarian
[19] = test system: K-562 leukemia
[20] = test system: KM12 colon
[21] = test system: LOX IMVI melanoma
[22] = test system: M14 melanoma
[23] = test system: MALME-3M melanoma
[24] = test system: MCF7 breast
[25] = test system: MDA-MB-231 breast
[26] = test system: MDA-MB-435
[27] = test system: MDA-MB-468 breast
[28] = test system: MOLT-4 leukemia
[29] = test system: NCI-H226 lung
[30] = test system: NCI-H23 lung
[31] = test system: NCI-H460 lung
[32] = test system: NCI-H522 lung
[33] = test system: NCI/ADR-RES ovarian
[34] = test system: OVCAR-3 ovarian
[35] = test system: OVCAR-4 ovarian
[36] = test system: OVCAR-5 ovarian
[37] = test system: OVCAR-8 ovarian
[38] = test system: PC-3 prostate
[39] = test system: RPMI-8226 leukemia
[40] = test system: RXF 393 renal
[41] = test system: SF-268 CNS
[42] = test system: SF-295 CNS
[43] = test system: SF-539 CNS
[44] = test system: SK-MEL-2 melanoma
[45] = test system: SK-MEL-28 melanoma
[46] = test system: SK-MEL-5 melanoma
[47] = test system: SK-OV-3 ovarian
[48] = test system: SN12C renal
[49] = test system: SNB-19 CNS
[50] = test system: SNB-75 CNS
[51] = test system: SR leukemia
[52] = test system: SW-620 colon
[53] = test system: T-47D breast
[54] = test system: TK-10 renal
[55] = test system: U251 CNS
[56] = test system: UACC-257 melanoma
[57] = test system: UACC-62 melanoma
[58] = test system: UO-31 renal

Molecule Oc1ccc(Cl)c(Nc2nc(SCCN3CCOCC3)nc3c2cnn3CC(Cl)c2ccc(Br)cc2)c1 (stereo unspecified) has a GI50 [1] of 15.4 µM, a TGI [1] of 93.3 µM and a GI50 [2] of 12.1 µM. For the same molecule, the TGI [2] was over 100 µM, the GI50 [3] was 4.75 µM and the TGI [3] was 54.1 µM. It also gave a GI50 [4] of 3.62 µM, a TGI [4] of over 100 µM and a GI50 [5] of 26.3 µM. The TGI [5] was over 100 µM, the GI50 [6] was 6.63 µM and the TGI [6] was over 100 µM. It also gave a GI50 [7] of 3.17 µM, a TGI [7] of over 100 µM and a GI50 [8] of 18.6 µM. The TGI [8] was 42.3 µM, the GI50 [9] was 6.33 µM and the TGI [9] was over 100 µM. It also gave a GI50 [10] of 4.64 µM, a TGI [10] of over 100 µM and a GI50 [11] of 4.1 µM. It also gave a TGI [11] of 25.4 µM, a GI50 [12] of 3.83 µM and a TGI [12] of over 100 µM. For the same molecule, the GI50 [13] was 3.27 µM, the TGI [13] was over 100 µM and the GI50 [14] was 6.62 µM. For the same molecule, the TGI [14] was over 100 µM, the GI50 [15] was 6.24 µM and the TGI [15] was over 100 µM. For the same molecule, the GI50 [16] was 2.57 µM, the TGI [16] was 9.21 µM and the GI50 [17] was 6.22 µM. For the same molecule, the TGI [17] was 24.5 µM, the GI50 [18] was 2.82 µM and the TGI [18] was 10.3 µM. For the same molecule, the GI50 [19] was 0.378 µM, the TGI [19] was over 100 µM and the GI50 [20] was 5.83 µM. It also gave a TGI [20] of over 100 µM, a GI50 [21] of 2.97 µM and a TGI [21] of 10.9 µM. It also gave a GI50 [22] of 4.49 µM, a TGI [22] of over 100 µM and a GI50 [23] of 3.7 µM. For the same molecule, the TGI [23] was 19.9 µM, the GI50 [24] was 2.93 µM and the TGI [24] was over 100 µM. It also gave a GI50 [25] of 3.77 µM, a TGI [25] of 17.3 µM and a GI50 [26] of 4.64 µM. For the same molecule, the TGI [26] was over 100 µM, the GI50 [27] was 2.2 µM and the TGI [27] was 6.28 µM. It also gave a GI50 [28] of 3.53 µM, a TGI [28] of over 100 µM and a GI50 [29] of 5.06 µM. It also gave a TGI [29] of over 100 µM, a GI50 [30] of 8.67 µM and a TGI [30] of 47.9 µM. For the same molecule, the GI50 [31] was 4.12 µM, the TGI [31] was over 100 µM and the GI50 [32] was 2.92 µM. The TGI [32] was over 100 µM, the GI50 [33] was 3.37 µM and the TGI [33] was over 100 µM. It also gave a GI50 [34] of 5.5 µM, a TGI [34] of over 100 µM and a GI50 [35] of 4.91 µM. For the same molecule, the TGI [35] was over 100 µM, the GI50 [36] was 7.08 µM and the TGI [36] was 84.6 µM. The GI50 [37] was 3.89 µM, the TGI [37] was over 100 µM and the GI50 [38] was 3.08 µM. It also gave a TGI [38] of over 100 µM, a GI50 [39] of 3.54 µM and a TGI [39] of over 100 µM. The GI50 [40] was 1.11 µM, the TGI [40] was 4.77 µM and the GI50 [41] was 4.34 µM. It also gave a TGI [41] of over 100 µM, a GI50 [42] of 3.1 µM and a TGI [42] of 19.1 µM. It also gave a GI50 [43] of 4.43 µM, a TGI [43] of over 100 µM and a GI50 [44] of 10.1 µM. It also gave a TGI [44] of 36.9 µM, a GI50 [45] of 6.03 µM and a TGI [45] of over 100 µM. It also gave a GI50 [46] of 3.95 µM, a TGI [46] of 15.2 µM and a GI50 [47] of 17.1 µM. For the same molecule, the TGI [47] was over 100 µM, the GI50 [48] was 3.17 µM and the TGI [48] was over 100 µM. It also gave a GI50 [49] of 8.16 µM, a TGI [49] of over 100 µM and a GI50 [50] of 1.39 µM. The TGI [50] was 6.13 µM, the GI50 [51] was 12.8 µM and the TGI [51] was over 100 µM. It also gave a GI50 [52] of 11.3 µM, a TGI [52] of over 100 µM and a GI50 [53] of 2.88 µM. It also gave a TGI [53] of over 100 µM, a GI50 [54] of 18.2 µM and a TGI [54] of 54.7 µM. The GI50 [55] was 5.75 µM, the TGI [55] was over 100 µM and the GI50 [56] was 13.7 µM. For the same molecule, the TGI [56] was over 100 µM, the GI50 [57] was 5.44 µM and the TGI [57] was 24 µM. It also gave a GI50 [58] of 2.04 µM and a TGI [58] of over 100 µM.
